The text below walks through data of ChEMBL document CHEMBL2074448, “Transport of anthelmintic benzimidazole drugs by breast cancer resistance protein (BCRP/ABCG2)” (Drug Metab Dispos, 2005).

The structures appear in SMILES notation.

Assay type in all cases: functional, cell-based
What all share (settings): dog, mdck-ii

Data set [1] deals with T1, Broad substrate specificity ATP-binding cassette transporter ABCG2 (Mus musculus, UniProt Q7TMS5).
T1 sequence (Q7TMS5 whole entry): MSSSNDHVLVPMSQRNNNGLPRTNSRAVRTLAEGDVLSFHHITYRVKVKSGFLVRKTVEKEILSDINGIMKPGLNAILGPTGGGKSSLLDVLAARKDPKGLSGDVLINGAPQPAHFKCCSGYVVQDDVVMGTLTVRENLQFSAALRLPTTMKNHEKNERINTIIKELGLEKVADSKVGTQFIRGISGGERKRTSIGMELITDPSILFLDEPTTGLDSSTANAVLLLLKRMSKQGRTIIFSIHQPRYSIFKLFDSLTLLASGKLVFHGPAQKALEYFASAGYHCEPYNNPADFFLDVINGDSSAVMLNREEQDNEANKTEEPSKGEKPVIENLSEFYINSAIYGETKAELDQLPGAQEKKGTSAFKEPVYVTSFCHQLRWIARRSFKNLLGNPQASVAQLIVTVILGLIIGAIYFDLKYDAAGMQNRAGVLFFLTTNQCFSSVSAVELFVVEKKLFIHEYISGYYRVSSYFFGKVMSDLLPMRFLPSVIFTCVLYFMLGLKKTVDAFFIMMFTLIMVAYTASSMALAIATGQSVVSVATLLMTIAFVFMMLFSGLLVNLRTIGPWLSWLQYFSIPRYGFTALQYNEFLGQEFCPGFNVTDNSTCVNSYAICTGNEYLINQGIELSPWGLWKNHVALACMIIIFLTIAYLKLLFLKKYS
Kind of data set: TP_TRANSPORTER: transepithelial transport (basal to apical) in Bcrp1-expressing MDCKII cells.

Data set [2] addresses T2, Broad substrate specificity ATP-binding cassette transporter ABCG2 (Homo sapiens, UniProt Q9UNQ0).
T2 sequence (Q9UNQ0 whole entry): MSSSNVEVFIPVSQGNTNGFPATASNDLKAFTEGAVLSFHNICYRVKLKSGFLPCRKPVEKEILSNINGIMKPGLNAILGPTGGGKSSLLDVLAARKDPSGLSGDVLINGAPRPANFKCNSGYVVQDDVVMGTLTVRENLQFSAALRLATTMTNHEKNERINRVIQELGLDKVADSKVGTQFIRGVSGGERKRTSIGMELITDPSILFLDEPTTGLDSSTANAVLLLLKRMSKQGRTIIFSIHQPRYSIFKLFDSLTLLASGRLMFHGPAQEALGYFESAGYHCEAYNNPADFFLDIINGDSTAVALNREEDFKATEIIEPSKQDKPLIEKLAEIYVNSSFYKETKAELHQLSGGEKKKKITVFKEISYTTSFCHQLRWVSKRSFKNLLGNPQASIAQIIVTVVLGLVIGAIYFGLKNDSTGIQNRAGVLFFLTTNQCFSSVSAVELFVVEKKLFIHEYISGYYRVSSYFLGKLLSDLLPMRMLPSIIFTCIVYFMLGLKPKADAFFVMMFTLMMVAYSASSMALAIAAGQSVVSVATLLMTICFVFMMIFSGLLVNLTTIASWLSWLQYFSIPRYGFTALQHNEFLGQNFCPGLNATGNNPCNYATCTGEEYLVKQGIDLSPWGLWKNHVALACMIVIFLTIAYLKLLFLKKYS
Description: TP_TRANSPORTER: transepithelial transport (basal to apical) in BCRP-expressing MDCKII cells.

Data set [3] addresses T1, Broad substrate specificity ATP-binding cassette transporter ABCG2. Description: TP_TRANSPORTER: transepithelial transport of PhIP (basal to apical) in Bcrp1-expressing MDCKII cells.
Data set [4] has as its target T2, Broad substrate specificity ATP-binding cassette transporter ABCG2. Description: TP_TRANSPORTER: transepithelial transport of PhIP (basal to apical) in BCRP-expressing MDCKII cells.

Take `CCC[S+]([O-])c1ccc2[nH]c(NC(=O)OC)nc2c1` (stereo unspecified) [ALBENDAZOLE OXIDE]: the Activity entry in data set [1] and in data set [2] was “substrate []” in each case.
Regarding `COc1ccc2c3c([nH]c2c1)[C@H](CC(C)C)N1C(=O)[C@H](CCC(=O)OC(C)(C)C)NC(=O)[C@@H]1C3`, the Activity result in data set [3] was “inhibitor []”.
For the compound `COC(=O)Nc1nc2ccc([S+]([O-])c3ccccc3)cc2[nH]1` (stereo unspecified) [OXFENDAZOLE], the values for the Activity entry in data set [1], in data set [3] and in data set [4] were “substrate []”, “inhibitor []” and “inhibitor []”, respectively.
